Reference: the NIST ThermoML archive (doi:10.1021/je200811n)
Where “and” joins values, the source holds several entries; their conditions need not be identical. Equal entries are not always repeated. ± gives the expanded uncertainty stated by the source.

Settings: Hot wire method

F/C=C/C(F)(F)F [trans-1,3,3,3-tetrafluoropropene]
Settings	thermal conductivity
341.16 K, 8206 kPa, Liquid	0.06693 ± 0.00076 W/m/K
341.17 K, 3028 kPa, Liquid	0.06204 ± 0.0007 W/m/K
341.17 K, 12132 kPa, Liquid	0.07036 ± 0.00078 W/m/K
341.2 K, 1573 kPa, Liquid	0.06027 ± 0.00068 W/m/K
341.38 K, 96 kPa, Gas	0.01689 ± 0.00057 W/m/K
341.39 K, 20076 kPa, Liquid	0.07508 ± 0.00083 W/m/K
341.4 K, 194 kPa, Gas	0.01707 ± 0.00057 W/m/K
341.4 K, 3026 kPa, Liquid	0.06202 ± 0.0007 W/m/K
341.42 K, 8129 kPa, Liquid	0.06706 ± 0.00075 W/m/K
341.42 K, 16390 kPa, Liquid	0.07285 ± 0.00081 W/m/K
341.44 K, 21979 kPa, Liquid	0.07653 ± 0.00085 W/m/K
341.45 K, 1581 kPa, Liquid	0.06025 ± 0.00068 W/m/K
341.48 K, 12128 kPa, Liquid	0.07023 ± 0.00079 W/m/K
341.48 K, 20072 kPa, Liquid	0.07503 ± 0.00083 W/m/K
341.49 K, 5174 kPa, Liquid	0.06424 ± 0.00072 W/m/K
341.5 K, 3025 kPa, Liquid	0.06178 ± 0.0007 W/m/K
341.51 K, 16388 kPa, Liquid	0.07271 ± 0.00081 W/m/K
341.52 K, 8125 kPa, Liquid	0.0669 ± 0.00075 W/m/K
341.52 K, 21981 kPa, Liquid	0.07638 ± 0.00085 W/m/K
341.54 K, 1585 kPa, Liquid	0.05998 ± 0.00068 W/m/K
341.58 K, 5172 kPa, Liquid	0.06405 ± 0.00072 W/m/K
341.58 K, 8204 kPa, Liquid	0.06619 ± 0.00074 W/m/K
341.58 K, 12127 kPa, Liquid	0.07002 ± 0.00079 W/m/K
341.64 K, 194 kPa, Gas	0.01696 ± 0.00057 W/m/K
341.72 K, 673 kPa, Gas	0.01756 ± 0.00059 W/m/K
341.75 K, 673 kPa, Gas	0.01724 ± 0.00058 W/m/K
341.76 K, 3022 kPa, Liquid	0.0618 ± 0.0007 W/m/K
341.77 K, 449 kPa, Gas	0.01756 ± 0.00059 W/m/K
341.77 K, 450 kPa, Gas	0.01753 ± 0.00059 W/m/K
341.81 K, 1588 kPa, Liquid	0.06 ± 0.00068 W/m/K
341.81 K, 20066 kPa, Liquid	0.07498 ± 0.00083 W/m/K
341.83 K, 1416 kPa, Gas	0.01808 ± 0.00032 W/m/K
341.84 K, 16385 kPa, Liquid	0.0727 ± 0.00081 W/m/K
341.84 K, 21982 kPa, Liquid	0.07632 ± 0.00084 W/m/K
341.87 K, 297 kPa, Gas	0.0174 ± 0.00058 W/m/K
341.88 K, 8122 kPa, Liquid	0.06684 ± 0.00075 W/m/K
341.91 K, 194 kPa, Gas	0.01763 ± 0.00059 W/m/K
341.92 K, 12126 kPa, Liquid	0.06996 ± 0.00078 W/m/K
341.92 K, 20063 kPa, Liquid	0.07481 ± 0.00083 W/m/K
341.94 K, 8199 kPa, Liquid	0.0668 ± 0.00075 W/m/K
341.95 K, 21979 kPa, Liquid	0.07618 ± 0.00084 W/m/K
341.96 K, 16381 kPa, Liquid	0.07254 ± 0.0008 W/m/K
341.97 K, 1251 kPa, Gas	0.01812 ± 0.00032 W/m/K
341.97 K, 5173 kPa, Liquid	0.06395 ± 0.00072 W/m/K
342 K, 8119 kPa, Liquid	0.06663 ± 0.00074 W/m/K
342.04 K, 96 kPa, Gas	0.0178 ± 0.00059 W/m/K
342.04 K, 671 kPa, Gas	0.01723 ± 0.00058 W/m/K
342.04 K, 1049 kPa, Gas	0.01784 ± 0.00032 W/m/K
342.04 K, 1050 kPa, Gas	0.01784 ± 0.00032 W/m/K
342.04 K, 12122 kPa, Liquid	0.06981 ± 0.00078 W/m/K
342.06 K, 8193 kPa, Liquid	0.0666 ± 0.00074 W/m/K
342.08 K, 870 kPa, Gas	0.01766 ± 0.00059 W/m/K
342.09 K, 450 kPa, Gas	0.0176 ± 0.00059 W/m/K
342.09 K, 868 kPa, Gas	0.01764 ± 0.00059 W/m/K
342.09 K, 5187 kPa, Liquid	0.06375 ± 0.00072 W/m/K
342.1 K, 450 kPa, Gas	0.01757 ± 0.00059 W/m/K
342.19 K, 297 kPa, Gas	0.0174 ± 0.00058 W/m/K
342.2 K, 297 kPa, Gas	0.01731 ± 0.00058 W/m/K
342.25 K, 1250 kPa, Gas	0.01811 ± 0.00032 W/m/K
342.26 K, 194 kPa, Gas	0.01748 ± 0.00058 W/m/K
342.26 K, 1414 kPa, Gas	0.01822 ± 0.00032 W/m/K
342.27 K, 20059 kPa, Liquid	0.07476 ± 0.00083 W/m/K
342.3 K, 21979 kPa, Liquid	0.07611 ± 0.00084 W/m/K
342.32 K, 16372 kPa, Liquid	0.07244 ± 0.0008 W/m/K
342.33 K, 1047 kPa, Gas	0.01784 ± 0.00032 W/m/K
342.33 K, 1048 kPa, Gas	0.01781 ± 0.00032 W/m/K
342.36 K, 669 kPa, Gas	0.01728 ± 0.00058 W/m/K
342.37 K, 670 kPa, Gas	0.01729 ± 0.00058 W/m/K
342.38 K, 866 kPa, Gas	0.01767 ± 0.00059 W/m/K
342.39 K, 867 kPa, Gas	0.01765 ± 0.00059 W/m/K
342.4 K, 8117 kPa, Liquid	0.06658 ± 0.00074 W/m/K
342.42 K, 450 kPa, Gas	0.01758 ± 0.00059 W/m/K
342.43 K, 451 kPa, Gas	0.01761 ± 0.00059 W/m/K
342.43 K, 12120 kPa, Liquid	0.06971 ± 0.00078 W/m/K
342.43 K, 21977 kPa, Liquid	0.07598 ± 0.00084 W/m/K
342.44 K, 97 kPa, Gas	0.01786 ± 0.0006 W/m/K
342.46 K, 8190 kPa, Liquid	0.06655 ± 0.00074 W/m/K
342.46 K, 16363 kPa, Liquid	0.07249 ± 0.0008 W/m/K
342.55 K, 1411 kPa, Gas	0.01807 ± 0.00032 W/m/K
342.56 K, 296 kPa, Gas	0.01736 ± 0.00058 W/m/K and 0.01734 ± 0.00058 W/m/K
342.56 K, 1249 kPa, Gas	0.01814 ± 0.00032 W/m/K
342.56 K, 8113 kPa, Liquid	0.06632 ± 0.00074 W/m/K
342.58 K, 12118 kPa, Liquid	0.06949 ± 0.00077 W/m/K
342.59 K, 1260 kPa, Gas	0.01776 ± 0.00032 W/m/K
342.64 K, 1045 kPa, Gas	0.01782 ± 0.00032 W/m/K
342.64 K, 1046 kPa, Gas	0.01782 ± 0.00032 W/m/K
342.65 K, 194 kPa, Gas	0.01771 ± 0.00059 W/m/K
342.71 K, 668 kPa, Gas	0.01733 ± 0.00058 W/m/K
342.71 K, 864 kPa, Gas	0.01769 ± 0.00059 W/m/K
342.72 K, 865 kPa, Gas	0.01767 ± 0.00059 W/m/K
342.78 K, 20073 kPa, Liquid	0.07479 ± 0.00083 W/m/K
342.79 K, 450 kPa, Gas	0.01763 ± 0.00059 W/m/K
342.79 K, 451 kPa, Gas	0.01763 ± 0.00059 W/m/K
342.81 K, 21978 kPa, Liquid	0.07589 ± 0.00084 W/m/K
342.85 K, 97 kPa, Gas	0.01784 ± 0.0006 W/m/K
342.85 K, 16357 kPa, Liquid	0.07241 ± 0.0008 W/m/K
342.94 K, 296 kPa, Gas	0.0174 ± 0.00058 W/m/K and 0.01739 ± 0.00058 W/m/K
342.96 K, 20077 kPa, Liquid	0.07456 ± 0.00083 W/m/K
342.97 K, 1044 kPa, Gas	0.01783 ± 0.00032 W/m/K
342.97 K, 21978 kPa, Liquid	0.07571 ± 0.00084 W/m/K
342.98 K, 1044 kPa, Gas	0.01784 ± 0.00032 W/m/K
342.98 K, 12116 kPa, Liquid	0.06939 ± 0.00077 W/m/K
343.02 K, 16352 kPa, Liquid	0.07225 ± 0.0008 W/m/K
343.05 K, 862 kPa, Gas	0.01767 ± 0.00059 W/m/K
343.05 K, 863 kPa, Gas	0.0177 ± 0.00059 W/m/K
343.06 K, 194 kPa, Gas	0.01766 ± 0.00059 W/m/K
343.07 K, 666 kPa, Gas	0.01736 ± 0.00058 W/m/K
343.08 K, 667 kPa, Gas	0.01735 ± 0.00058 W/m/K
343.16 K, 1405 kPa, Gas	0.01819 ± 0.00032 W/m/K
343.25 K, 1255 kPa, Gas	0.01787 ± 0.00032 W/m/K
343.28 K, 96 kPa, Gas	0.01785 ± 0.0006 W/m/K
343.32 K, 1043 kPa, Gas	0.01783 ± 0.00032 W/m/K
343.35 K, 296 kPa, Gas	0.01753 ± 0.00059 W/m/K
343.48 K, 194 kPa, Gas	0.01763 ± 0.00059 W/m/K

Settings	thermal conductivity [W/m/K]
343.15 K, Liquid	0.05993 ± 0.00044
